Columns and labels:
Experiment in all cases: relative viability (nuclei count vs DMSO), 5 days (fraction); higher = more cells survive
201T = system: 201T
How it was run: (§1)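 One day after seeding in 1536-well plates, lung cancer cell lines were dosed by pin tool. Dosing was either single-drug or a fixed anchor-drug dose plus five library-drug doses (not always all listed) in √10 steps. After 5 days, nuclei were stained in one fix-and-stain step and counted on 4× images, and relative viability is the nuclei count of treated wells over that of vehicle wells, given as the median of duplicate plates.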

A-427 = system: A-427
How it was run: as §1

ABC-1 = system: ABC-1
How it was run: as §1

COR-L 105 = system: COR-L 105
How it was run: as §1

COR-L23 = system: COR-L23
How it was run: as §1

EKVX = system: EKVX
How it was run: as §1

EMC-BAC-2 = system: EMC-BAC-2
How it was run: as §1

EPLC-272H = system: EPLC-272H
How it was run: as §1

HCC-44 = system: HCC-44
How it was run: as §1

HCC-827 = system: HCC-827
How it was run: as §1

LCLC-103H = system: LCLC-103H
How it was run: as §1

LU99A = system: LU99A
How it was run: as §1

NCI-H1437 = system: NCI-H1437
How it was run: as §1

NCI-H1666 = system: NCI-H1666
How it was run: as §1

NCI-H1792 = system: NCI-H1792
How it was run: as §1

NCI-H2009 = system: NCI-H2009
How it was run: as §1

NCI-H2023 = system: NCI-H2023
How it was run: as §1

NCI-H2087 = system: NCI-H2087
How it was run: as §1

NCI-H3122 = system: NCI-H3122
How it was run: as §1

NCI-H520 = system: NCI-H520
How it was run: as §1

PC-14 = system: PC-14
How it was run: as §1

RERF-LC-KJ = system: RERF-LC-KJ
How it was run: as §1

SK-LU-1 = system: SK-LU-1
How it was run: as §1

SW 1573 = system: SW 1573
How it was run: as §1

SW 900 = system: SW 900
How it was run: as §1

SMILES: Nc1cccc2c1CN(C1CCC(=O)NC1=O)C2=O (configuration not stated) [Lenalidomide] + COc1cccc2cc(-c3nc([C@H]4CC[C@H](C(=O)O)CC4)n4ncnc(N)c34)[nH]c12 [OSI-027] (partner 0.5 µM)
- relative viability (201T; first compound 0.253 µM): 0.767
- relative viability (201T; first compound 0.8 µM): 0.494
- relative viability (201T; first compound 2.53 µM): 0.799
- relative viability (201T; first compound 8 µM): 0.791
- relative viability (A-427; first compound 0.253 µM): 0.48
- relative viability (A-427; first compound 0.8 µM): 0.387
- relative viability (A-427; first compound 2.53 µM): 0.473
- relative viability (A-427; first compound 8 µM): 0.514
- relative viability (ABC-1; first compound 0.253 µM): 0.453
- relative viability (ABC-1; first compound 0.8 µM): 0.489
- relative viability (ABC-1; first compound 2.53 µM): 0.533
- relative viability (ABC-1; first compound 8 µM): 0.481
- relative viability (COR-L 105; first compound 0.253 µM): 0.715
- relative viability (COR-L 105; first compound 0.8 µM): 0.632
- relative viability (COR-L 105; first compound 2.53 µM): 0.697
- relative viability (COR-L 105; first compound 8 µM): 0.821
- relative viability (COR-L23; first compound 0.253 µM): 0.781
- relative viability (COR-L23; first compound 0.8 µM): 0.776
- relative viability (COR-L23; first compound 2.53 µM): 0.892
- relative viability (COR-L23; first compound 8 µM): 0.787
- relative viability (EKVX; first compound 0.253 µM): 0.724
- relative viability (EKVX; first compound 0.8 µM): 0.734
- relative viability (EKVX; first compound 2.53 µM): 0.696
- relative viability (EKVX; first compound 8 µM): 0.702
- relative viability (EMC-BAC-2; first compound 0.253 µM): 0.38
- relative viability (EMC-BAC-2; first compound 0.8 µM): 0.349
- relative viability (EMC-BAC-2; first compound 2.53 µM): 0.393
- relative viability (EMC-BAC-2; first compound 8 µM): 0.344
- relative viability (EPLC-272H; first compound 0.253 µM): 0.297
- relative viability (EPLC-272H; first compound 0.8 µM): 0.339
- relative viability (EPLC-272H; first compound 2.53 µM): 0.292
- relative viability (EPLC-272H; first compound 8 µM): 0.283
- relative viability (HCC-44; first compound 0.253 µM): 0.636
- relative viability (HCC-44; first compound 2.53 µM): 0.535
- relative viability (HCC-44; first compound 8 µM): 0.512
- relative viability (HCC-827; first compound 0.253 µM): 0.807
- relative viability (HCC-827; first compound 0.8 µM): 0.74
- relative viability (HCC-827; first compound 2.53 µM): 0.849
- relative viability (HCC-827; first compound 8 µM): 0.831
- relative viability (LCLC-103H; first compound 0.253 µM): 0.433
- relative viability (LCLC-103H; first compound 0.8 µM): 0.433
- relative viability (LCLC-103H; first compound 2.53 µM): 0.512
- relative viability (LCLC-103H; first compound 8 µM): 0.473
- relative viability (LU99A; first compound 0.253 µM): 0.31
- relative viability (LU99A; first compound 0.8 µM): 0.324
- relative viability (LU99A; first compound 2.53 µM): 0.292
- relative viability (LU99A; first compound 8 µM): 0.285
- relative viability (NCI-H1437; first compound 0.253 µM): 0.888
- relative viability (NCI-H1437; first compound 0.8 µM): 1.11
- relative viability (NCI-H1437; first compound 2.53 µM): 0.993
- relative viability (NCI-H1437; first compound 8 µM): 0.956
- relative viability (NCI-H1666; first compound 0.253 µM): 0.822
- relative viability (NCI-H1666; first compound 2.53 µM): 0.927
- relative viability (NCI-H1666; first compound 8 µM): 0.894
- relative viability (NCI-H1792; first compound 0.253 µM): 0.682
- relative viability (NCI-H1792; first compound 0.8 µM): 0.709
- relative viability (NCI-H1792; first compound 2.53 µM): 0.722
- relative viability (NCI-H1792; first compound 8 µM): 0.756
- relative viability (NCI-H2009; first compound 0.253 µM): 0.627
- relative viability (NCI-H2009; first compound 0.8 µM): 0.64
- relative viability (NCI-H2009; first compound 2.53 µM): 0.779
- relative viability (NCI-H2009; first compound 8 µM): 0.759
- relative viability (NCI-H2023; first compound 0.253 µM): 0.418
- relative viability (NCI-H2023; first compound 0.8 µM): 0.337
- relative viability (NCI-H2023; first compound 2.53 µM): 0.545
- relative viability (NCI-H2023; first compound 8 µM): 0.451
- relative viability (NCI-H2087; first compound 0.253 µM): 0.679
- relative viability (NCI-H2087; first compound 0.8 µM): 0.501
- relative viability (NCI-H2087; first compound 2.53 µM): 0.521
- relative viability (NCI-H2087; first compound 8 µM): 0.712
- relative viability (NCI-H3122; first compound 0.253 µM): 0.97
- relative viability (NCI-H3122; first compound 0.8 µM): 1.21
- relative viability (NCI-H3122; first compound 2.53 µM): 0.914
- relative viability (NCI-H3122; first compound 8 µM): 0.898
- relative viability (NCI-H520; first compound 0.253 µM): 0.284
- relative viability (NCI-H520; first compound 0.8 µM): 0.25
- relative viability (NCI-H520; first compound 2.53 µM): 0.311
- relative viability (NCI-H520; first compound 8 µM): 0.281
- relative viability (PC-14; first compound 0.253 µM): 0.791
- relative viability (PC-14; first compound 0.8 µM): 0.853
- relative viability (PC-14; first compound 2.53 µM): 1.2
- relative viability (PC-14; first compound 8 µM): 1.02
- relative viability (RERF-LC-KJ; first compound 0.253 µM): 0.57
- relative viability (RERF-LC-KJ; first compound 0.8 µM): 0.615
- relative viability (RERF-LC-KJ; first compound 2.53 µM): 0.643
- relative viability (RERF-LC-KJ; first compound 8 µM): 0.644
- relative viability (SK-LU-1; first compound 0.253 µM): 0.313
- relative viability (SK-LU-1; first compound 0.8 µM): 0.361
- relative viability (SK-LU-1; first compound 2.53 µM): 0.36
- relative viability (SK-LU-1; first compound 8 µM): 0.421
- relative viability (SW 1573; first compound 0.253 µM): 0.573
- relative viability (SW 1573; first compound 0.8 µM): 0.712
- relative viability (SW 1573; first compound 2.53 µM): 0.792
- relative viability (SW 1573; first compound 8 µM): 0.565
- relative viability (SW 900; first compound 0.253 µM): 0.559
- relative viability (SW 900; first compound 2.53 µM): 0.742
- relative viability (SW 900; first compound 8 µM): 0.532

From the supplement of paper PMC10307832
